Laboratory results from patent publication US8754038B2, “Template-fixed peptidomimetics with CCR10 antagonistic activity” (priority 2009, dated 2014).
Numbered stars: 1 amine (or outer) side, 2 acyl side, 3 side chain; on linkers, the order of the positions; unused ones are H or OH. Square brackets hold non-standard residues; d marks the D form. Side chains are listed from the residue outwards. Peptide text beside a SMILES is read from it. * marks the point of attachment. Pro(4R-OPh) = O=C(O)[C@@H]1C[C@@H](Oc2ccccc2)CN1; Phe(4-CN) = N#Cc1ccc(C[C@H](N)C(=O)O)cc1; Hyp = O=C(O)[C@@H]1C[C@@H](O)CN1; Benzyl(4-Br) = Brc1ccc(C*)cc1; Ac5c = NC1(C(=O)O)CCCC1; Dab = NCC[C@H](N)C(=O)O; X10 = N#Cc1ccc(C*)cc1; X14 = N#Cc1cccc(C*)c1; CO = O=C([*:1])[*:2]; NHPh = c1ccc(N*)cc1

Assays:
human CCR10 [1] = biological target: T1, human CCR10 (Homo sapiens, UniProt P46092); assay: Calcium flux assay (CCR10 antagonism, CCL27 as agonist); type: cell-based; conditions: CCR10 transfected 300-19 murine pre-B cells; CCL27 30 nM
T1 construct: expressed in transfected cells
T1 sequence (P46092 1-362): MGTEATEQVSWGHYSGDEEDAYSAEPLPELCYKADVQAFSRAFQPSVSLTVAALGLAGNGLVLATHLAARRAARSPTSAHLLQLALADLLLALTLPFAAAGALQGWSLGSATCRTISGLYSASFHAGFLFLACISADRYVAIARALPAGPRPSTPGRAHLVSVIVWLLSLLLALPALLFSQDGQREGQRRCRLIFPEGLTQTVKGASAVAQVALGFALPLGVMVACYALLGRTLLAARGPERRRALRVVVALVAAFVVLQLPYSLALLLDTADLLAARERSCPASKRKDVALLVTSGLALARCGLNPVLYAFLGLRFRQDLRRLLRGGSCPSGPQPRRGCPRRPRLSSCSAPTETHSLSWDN
Experimental: (§1) Lyophilized peptides were weighed on a Microbalance (Mettler MX5) and dissolved in aqueous 90% DMSO to a final concentration of 10 mM unless otherwise stated. Stock solutions were kept at +4° C., and protected from light.
(§2) Peptides were assayed for CCR10 antagonism in a calcium flux assay and in a chemotaxis assay using a mouse pre-B cell line 300-19 stably transfected with human CCR10, and with human CCL27 as agonist.
The calcium flux release was assessed using CCR10 transfected 300-19 murine pre-B cells. These cells were labeled as a batch with Calcium4 Reagent (Molecular Devices, Sunnyvale, Calif.) in HBSS buffer for 60 min.
After dispensing 8×10^4 cells in each well of a 384-well black plate, a concentrated solution of the β-hairpin peptidomimetics of this invention in HBSS+0.1% BSA+0.1% DMSO (final concentration) was added to the cells. The entire plate was centrifuged and placed in a Flexstation II (Molecular Devices) automated plate reader. After reading a 20 s baseline, the Flexstation dispensed CCL27 (RnD systems) at a final concentration of 30 nM in HBSS+0.1% BSA onto the cells and calcium flux was measured for an additional 70 s.
Alternatively a FIipR384 (Molecular Devices) was used for read out of the 384-well plates. In this case about 8×10^4 cells were placed in each well, centrifuged, placed in the FlipR and after 5 s of baseline reading, the β-hairpin peptidomimetics in HBSS+0.1% BSA+0.1% DMSO (final concentration) were added. After an incubation time of 5 min, the CCL27 solution was added to the mixture and the calcium flux was measured for 200 s.
The maximum signal was determined from control wells without inhibitor. Percentage of inhibition was calculated from a range of compound concentrations, which were subsequently used to calculate IC50 values (Softmax Pro, Molecular Devices). All steps were carried out at room temperature.

human CCR10 [2] = biological target: T1, human CCR10; assay: Chemotaxis assay (CCR10-transfected 300-19 cells, CCL27 gradient); type: cell-based; conditions: CCR10-transfected 300-19 murine pre-B cells; 30 nM CCL27 gradient
Experimental: as §1, §2
The chemotactic response of CCR10-transfected 300-19 murine pre-B cells to a gradient of CCL27 (CTACK) was measured using disposable Transwell® assay plates from Costar (5 μm pore size) according to the protocol of the manufacturer. Briefly, cells were grown under sterile conditions at 37° C. with 5% CO2 in flasks containing RPMI+5% FCS, glutamine, penicillin/streptomycin (all media components were from Life Technologies) and the appropriate selection antibiotics (Puromycin, G418 or Tetracycline). For the assay, cells were pelleted by centrifugation, washed once in Dulbecco's phosphate buffered saline (DPBS), and resuspended to give 1×10^6 cells/ml in RPMI+0.5% bovine serum albumin (BSA). 100 μl of cell suspension was applied to the top of the assay filter. The β-hairpin peptidomimetics, diluted in the same assay medium, were added to both top and bottom chambers. The cells were allowed to migrate for 4-6 hours at 37° C. into the bottom chamber of the assay plate containing 30 nM of CCL27 (RnD systems). Migrated cells were counted using a FACS cytometer (Cytomics FC500, Beckman Coulter). Data normalization was performed using the number of any cells that had migrated in the absence of the β-hairpin peptidomimetic and the number of cells that have randomly migrated in absence of CCL27 [these values were taken as 100% (no inhibitory activity) and 0%, respectively]. From a range of compound concentrations IC50 were determined using Prism5 (GraphPad software).

| Structure (SMILES) | IC50 (human CCR10 [1]) [nM] | IC50 (human CCR10 [2]) [nM] |
| --- | --- | --- |
| NCC[C@@H]1NC(=O)[C@H](Cc2c[nH]c3ccccc23)NC(=O)C2(CCCC2)NC(=O)[C@H](Cc2c[nH]c3ccccc23)NC(=O)[C@@H]2C[C@@H](Oc3ccccc3)CN2C(=O)[C@H]2CCCN2C1=O [compound 52, cyclo(-Trp-Cyp-Trp-Dab-^DPro-Hyp(Ph)-)] (cyclo([Ac5c]W[Dab][dP][Pro(4R-OPh)]W)) | 42 ± 25.1 | 37 |
| N#Cc1ccc(CO[C@@H]2C[C@H]3C(=O)N[C@@H](Cc4c[nH]c5ccccc45)C(=O)NC4(CCCC4)C(=O)N[C@@H](Cc4c[nH]c5ccccc45)C(=O)N[C@@H](CCN)C(=O)N4CCC[C@@H]4C(=O)N3C2)cc1 [compound 53, cyclo(-Trp-Cyp-Trp-Dab-^DPro-Hyp(4CNBn)-)] (cyclo([Ac5c]W[Dab][dP][Hyp](X10)W)) | 48.9 ± 40 | 143 |
| NCC[C@@H]1NC(=O)[C@H](Cc2c[nH]c3ccccc23)NC(=O)C2(CCCC2)NC(=O)[C@H](Cc2c[nH]c3ccccc23)NC(=O)[C@@H]2C[C@@H](OC(=O)Nc3ccccc3)CN2C(=O)[C@H]2CCCN2C1=O [compound 57, cyclo(-Trp-Cyp-Trp-Dab-^DPro-Hyp(CONHPh)-)] (cyclo([Ac5c]W[Dab][dP][Hyp]([CO-NHPh])W)) | 150 ± 110 | 183 |

Results, then the molecule that gave them:

| IC50 (human CCR10 [1]) [nM] | IC50 (human CCR10 [2]) [nM] | Structure (SMILES) |
| --- | --- | --- |
| 5.3 ± 3.9 | 0.6 | N#Cc1ccc(C[C@@H]2NC(=O)[C@@H]3C[C@@H](OCc4ccc(Br)cc4)CN3C(=O)[C@H]3CCCN3C(=O)[C@H](CO)NC(=O)[C@H](Cc3c[nH]c4ccccc34)NC(=O)C3(CCCC3)NC2=O)cc1 [compound 55, cyclo(-Phe(4CN)-Cyp-Trp-Ser-^DPro-Hyp(4BrBn)-)] (cyclo([Ac5c]WS[dP][Hyp](Benzyl(4-Br))[Phe(4-CN)])) |
| 11.6 ± 9.2 | 2.5 | NCC[C@@H]1NC(=O)[C@H](Cc2c[nH]c3ccccc23)NC(=O)C2(CCCC2)NC(=O)[C@H](Cc2c[nH]c3ccccc23)NC(=O)[C@@H]2C[C@@H](OCc3ccc(Br)cc3)CN2C(=O)[C@H]2CCCN2C1=O [compound 56, cyclo(-Trp-Cyp-Trp-Dab-^DPro-Hyp(4BrBn)-)] (cyclo([Ac5c]W[Dab][dP][Hyp](Benzyl(4-Br))W)) |
| 127 ± 73 | 50.7 | N#Cc1cccc(CO[C@@H]2C[C@H]3C(=O)N[C@@H](Cc4c[nH]c5ccccc45)C(=O)NC4(CCCC4)C(=O)N[C@@H](Cc4c[nH]c5ccccc45)C(=O)N[C@@H](CCN)C(=O)N4CCC[C@@H]4C(=O)N3C2)c1 [compound 77, cyclo(-Trp-Cyp-Trp-Dab-^DPro-Hyp(3CNBn)-)] (cyclo([Ac5c]W[Dab][dP][Hyp](X14)W)) |
